From patent US10793575B2, “Oxoisoquinoline derivatives” (CARNA BIOSCIENCES, INC., priority 2016, dated 2020)

What follows are molecules tested on OCI-Ly10 cells (assay: Proliferation-Inhibitory Test Against Diffuse Large-Cell B-Cell Lymphoma OCI-Ly10 Strain). Settings: Homo sapiens, 96 hours, alamarBlue.
Type: cell-based
Protocol: OCI-Ly10 cells were cultured in IMDM medium (Iscove's Modified Dulbecco's Medium, Manufactured by Thermo Fisher Scientific Inc., hereinafter “medium”) containing 20% Fetal bovine serum and 1% penicillin-streptomycin (Nacalai Tesque, Inc.) in a 5% CO2 incubator. OCI-Ly10 cells were seeded to 96-well plate (20000 cells/well), compounds diluted with medium were added with final concentrations of 0.9 nM to 30000 nM (Final DMSO concentration, 0.3%), incubated for 96 hours and alamorBlue reagent (Thermo Fisher Scientific Inc.) was added.

Structure (SMILES) | IC50
Nc1nc(-c2cccc(-n3ccc4cc(C5CC5)cc(F)c4c3=O)c2CO)c2cc(-c3cc(F)cc(F)c3)[nH]c2n1 [Example 44, 2-{3-[2-amino-6-(3,5-difluorophenyl)-7H-pyrrolo[2,3-d]pyrimidin-4-yl]-2-(hydroxymethyl)phenyl}-6-cyclopropyl-8-fluoroisoquinolin-1(2H)-one] | 885 nM
Nc1nc(-c2cccc(-n3ccc4cc(C5CC5)cc(F)c4c3=O)c2CO)c2cc(-c3ccc(F)cn3)[nH]c2n1 [Example 45, 2-{3-[2-amino-6-(5-fluoropyridin-2-yl)-7H-pyrrolo[2,3-d]pyrimidin-4-yl]-2-(hydroxymethyl)phenyl}-6-cyclopropyl-8-fluoroisoquinolin-1(2H)-one] | 134 nM
Nc1nc(-c2cccc(-n3ccc4cc(C5CC5)cc(F)c4c3=O)c2CO)c2cc(-c3cncc(F)c3)[nH]c2n1 [Example 46, 2-{3-[2-amino-6-(5-fluoropyridin-3-yl)-7H-pyrrolo[2,3-d]pyrimidin-4-yl]-2-(hydroxymethyl)phenyl}-6-cyclopropyl-8-fluoroisoquinolin-1(2H)-one] | 564 nM
CNc1ccc(-c2cc3c(-c4cccc(-n5ccc6cc(C7CC7)cc(F)c6c5=O)c4CO)nc(N)nc3[nH]2)cn1 [Example 47, 2-(3-{2-amino-6-[6-(methylamino)pyridin-3-yl]-7H-pyrrolo[2,3-d]pyrimidin-4-yl}-2-(hydroxymethyl)phenyl)-6-cyclopropyl-8-fluoroisoquinolin-1(2H)-one] | 204 nM
Cc1ccc(-c2cc3c(-c4cccc(-n5ccc6cc(C7CC7)cc(F)c6c5=O)c4CO)nc(N)nc3[nH]2)cc1 [Example 56, 2-{3-[2-amino-6-(p-tolyl)-7H-pyrrolo[2,3-d]pyrimidin-4-yl]-2-(hydroxymethyl)phenyl}-6-cyclopropyl-8-fluoroisoquinolin-1(2H)-one] | 412 nM
Nc1nc(-c2cccc(-n3ccc4cc(C5CC5)cc(F)c4c3=O)c2CO)c2cc(-c3cnn(-c4ccccc4)c3)[nH]c2n1 [Example 64, 2-{3-[2-amino-6-(1-phenyl-1H-pyrazol-4-yl)-7H-pyrrolo[2,3-d]pyrimidin-4-yl]-2-(hydroxymethyl)phenyl}-6-cyclopropyl-8-fluoroisoquinolin-1(2H)-one] | 642 nM
COc1ccc(-c2cc3c(-c4cccc(-n5ccc6cc(C7CC7)cc(F)c6c5=O)c4CO)nc(N)nc3[nH]2)cn1 [Example 65, 2-{3-[2-amino-6-(6-methoxypyridin-3-yl)-7H-pyrrolo[2,3-d]pyrimidin-4-yl]-2-(hydroxymethyl)phenyl}-6-cyclopropyl-8-fluoroisoquinolin-1(2H)-one] | 276 nM
CC(C)(C)OC(=O)N1CC=C(c2cc3c(-c4cccc(-n5ccc6cc(C7CC7)cc(F)c6c5=O)c4CO)nc(N)nc3[nH]2)CC1 [Example 68, tert-butyl 4-{2-amino-4-[3-(6-cyclopropyl-8-fluoro-1-oxoisoquinolin-2(1H)-yl)-2-(hydroxymethyl)phenyl]-7H-pyrrolo[2,3-d]pyrimidin-6-yl}-5,6-dihydropyridine-1(2H)-carboxylate] | 115 nM
CC(C)(C)n1cc(-c2cc3c(-c4cccc(-n5ccc6cc(C7CC7)cc(F)c6c5=O)c4CO)nc(N)nc3[nH]2)cn1 [Example 72, 2-(3-{2-amino-6-[1-(tert-butyl)-1H-pyrazol-4-yl]-7H-pyrrolo[2,3-d]pyrimidin-4-yl}-2-(hydroxymethyl)phenyl)-6-cyclopropyl-8-fluoroisoquinolin-1(2H)-one] | 127 nM

Now those with a lower IC50, led by results:

IC50 | Structure (SMILES)
54 nM | Nc1nc(-c2cccc(-n3ccc4cc(C5CC5)cc(F)c4c3=O)c2CO)c2cc(-c3ccc(N4CCOCC4)nc3)[nH]c2n1 [Example 48, 2-{3-[2-amino-6-(6-morpholinopyridin-3-yl)-7H-pyrrolo[2,3-d]pyrimidin-4-yl]-2-(hydroxymethyl)phenyl}-6-cyclopropyl-8-fluoroisoquinolin-1(2H)-one]
88 nM | COc1cc(-c2cc3c(-c4cccc(-n5ccc6cc(C7CC7)cc(F)c6c5=O)c4CO)nc(N)nc3[nH]2)ccn1 [Example 49, 2-{3-[2-amino-6-(2-methoxypyridin-4-yl)-7H-pyrrolo[2,3-d]pyrimidin-4-yl]-2-(hydroxymethyl)phenyl}-6-cyclopropyl-8-fluoroisoquinolin-1(2H)-one]
13 nM | CN1CCN(Cc2ccc(-c3cc4c(-c5cccc(-n6ccc7cc(C8CC8)cc(F)c7c6=O)c5CO)nc(N)nc4[nH]3)cc2)CC1=O [Example 55, 2-[3-(2-amino-6-{4-[(4-methyl-3-oxopiperazin-1-yl)methyl]phenyl}-7H-pyrrolo[2,3-d]pyrimidin-4-yl)-2-(hydroxymethyl)phenyl]-6-cyclopropyl-8-fluoroisoquinolin-1(2H)-one]
27 nM | Nc1nc(-c2cccc(-n3ccc4cc(C5CC5)cc(F)c4c3=O)c2CO)c2cc(-c3cnn(Cc4ccccc4)c3)[nH]c2n1 [Example 58, 2-{3-[2-amino-6-(1-benzyl-1H-pyrazol-4-yl)-7H-pyrrolo[2,3-d]pyrimidin-4-yl]-2-(hydroxymethyl)phenyl}-6-cyclopropyl-8-fluoroisoquinolin-1(2H)-one]
63 nM | CN(C)c1ccc(-c2cc3c(-c4cccc(-n5ccc6cc(C7CC7)cc(F)c6c5=O)c4CO)nc(N)nc3[nH]2)cn1 [Example 59, 2-(3-{2-amino-6-[6-(dimethylamino)pyridin-3-yl]-7H-pyrrolo[2,3-d]pyrimidin-4-yl}-2-(hydroxymethyl)phenyl)-6-cyclopropyl-8-fluoroisoquinolin-1(2H)-one]
64 nM | COCCNc1cncc(-c2cc3c(-c4cccc(-n5ccc6cc(C7CC7)cc(F)c6c5=O)c4CO)nc(N)nc3[nH]2)c1 [Example 60, 2-[3-(2-amino-6-{5-[(2-methoxyethyl)amino]pyridin-3-yl}-7H-pyrrolo[2,3-d]pyrimidin-4-yl)-2-(hydroxymethyl)phenyl}-6-cyclopropyl-8-fluoroisoquinolin-1(2H)-one]
15 nM | CCn1cc(-c2cc3c(-c4cccc(-n5ccc6cc(C7CC7)cc(F)c6c5=O)c4CO)nc(N)nc3[nH]2)cn1 [Example 62, 2-{3-[2-amino-6-(1-ethyl-1H-pyrazol-4-yl)-7H-pyrrolo[2,3-d]pyrimidin-4-yl]-2-(hydroxymethyl)phenyl}-6-cyclopropyl-8-fluoroisoquinolin-1(2H)-one]
16 nM | CC(C)n1cc(-c2cc3c(-c4cccc(-n5ccc6cc(C7CC7)cc(F)c6c5=O)c4CO)nc(N)nc3[nH]2)cn1 [Example 63, 2-{3-[2-amino-6-(1-isopropyl-1H-pyrazol-4-yl)-7H-pyrrolo[2,3-d]pyrimidin-4-yl]-2-(hydroxymethyl)phenyl}-6-cyclopropyl-8-fluoroisoquinolin-1(2H)-one]
82 nM | Nc1nc(-c2cccc(-n3ccc4cc(C5CC5)cc(F)c4c3=O)c2CO)c2cc(-c3ccc(CN4CCSC4)cc3)[nH]c2n1 [Example 67, 2-(3-{2-amino-6-[4-(thiazolidin-3-ylmethyl)phenyl]-7H-pyrrolo[2,3-d]pyrimidin-4-yl)-2-(hydroxymethyl)phenyl}-6-cyclopropyl-8-fluoroisoquinolin-1(2H)-one]
4 nM | Nc1nc(-c2cccc(-n3ccc4cc(C5CC5)cc(F)c4c3=O)c2CO)c2cc(C3=CCN(C(=O)N4CCOCC4)CC3)[nH]c2n1 [Example 70, 2-(3-{2-amino-6-[1-(morpholine-4-carbonyl)-1,2,3,6-tetrahydropyridin-4-yl]-7H-pyrrolo[2,3-d]pyrimidin-4-yl}-2-(hydroxymethyl)phenyl)-6-cyclopropyl-8-fluoroisoquinolin-1(2H)-one]
